In PMC535546, “Assessment of FIV-C infection of cats as a function of treatment with the protease inhibitor, TL-3” (Retrovirology, 2004):

Assays:
FIV-C (CABCpady00C) = assay: FIV-C infection of cats with oral TL-3 treatment (viral load, disease, survival); type: in vivo, cat
Procedure: Twenty-two female specific pathogen-free (SPF) cats were randomly divided into five groups. Group 0 consisted of two cats, which received TL-3 treatment without viral infection and were considered controls. Group 1 (n = 5) received 0.1 ml (10^5 RNA copies/ml) of FIV-C-infected plasma I.V. with TL-3 drug treatment. Group 2 (n = 5) received 0.1 ml FIV-C-infected plasma without TL-3 treatment. Group 3 (n = 5) received 0.5 ml FIV-C-infected plasma with TL-3 and Group 4 (n = 5) received 0.5 ml FIV-C-infected plasma without TL-3 treatment. Blood (1 ml) was drawn from all cats prior to the start of the experiment, at weekly intervals for the first four weeks after infection, and at bi-monthly intervals from week 4 until the end of the study. Complete blood counts were assessed as a function of infection and TL-3 treatment. In addition, quantitative reverse transcription PCR (QRT-PCR) analyses were performed to assess plasma viral load. All animals were continuously observed for any changes in general health. No significant differences were noted between viral load or disease phenotype between the two plasma dosages used in infection and subsequent discussion will not distinguish between these two groups.
Plasma samples (10^5 RNA copies/ml) from a cat, that had died from an acute infection with CABCpady00C (FIV-C), were kindly provided by Dr. E. Hoover, of Colorado State University. Cats were injected I.V. with either 0.1 ml (10^5 RNA copies/ml) or 0.5 ml of plasma.
(§1) All procedures for care of cats during dosing as well as dosing procedures were mandated by TSRI's IACUC. Oral TL-3 (L-Iditol,1,2,5,6-tetradeoxy-1,6-diphenyl-2,5-bis [N-[(phenylmethoxy)carbonyl]-L-alanyl-L-valyl]amino]) treatment was initiated in 12 cats, three days prior to infection of ten of the twelve animals with FIV-C. All TL-3 treated animals received 20 mg TL-3 by capsules at eight hour intervals, for approx. the first 7.5 weeks of the experiment. Dosage was then doubled to 40 mg TL-3 per dose at eight hour intervals for an additional week for the two control animals and the eight surviving animals in the TL-3 treated, infected cohort.
Animals were examined daily and in case of health concerns further therapy/diagnostics were initiated. Animals with abnormal weight, or on antibiotics were placed on supplemental feeding with moist food and Nutrical. Dehydrated animals received subcutaneous fluid therapy. More affected animals received supportive care and medications, consisting of BID administration of antibiotics (Baytril), BID subcutaneous fluid therapy, BID temperature evaluation, BID application of antibiotic ophthalmic ointment supportive care. Any animals that required extensive supportive care (TID fluid therapy, TID force feeding) were euthanized. Euthanasia of research animals was conducted with strict adherence to NIH Office of Laboratory Animal Welfare protocols.
Plasma for weeks 0, 2, 4, 6 (terminal points for cats 215, 221, and 229), 6.5 (terminal points for cats 219, 220, and 234), and 8, were isolated from whole blood by centrifugation and stored at -20°C. Viral RNA was extracted using the QiaAmp Viral RNA Isolation Kit (Qiagen, Valencia, CA) according to manufacturer's instructions with slight modifications: Plasma samples (280 μl) were lysed in buffer AVL (1,120 μl) (Qiagen) for 10 minutes at room temperature in the presence of carrier RNA (10 μg/ml) and an external Kanamycin (KAN) RNA spike. Equal amounts of the external RNA spike (10^9 copies RNA /280 μl plasma), corresponding to the 1.2 kb KAN gene (Promega, Madison, WI), was used to normalize plasma volumes between samples and to correct for sample loss from viral RNA extraction and cDNA synthesis. An on-column DNase/ RNase free (Qiagen) incubation step for 10 minutes at room temperature was added to remove residual cellular DNA. […]

[1] = target: T1, FIV-C protease mutant H72R (HIV63L) (Feline immunodeficiency virus, UniProt P16088, H110R); assay: Inhibitor constant (Ki) of TL-3 against mutant FIV-C protease H72R; type: biochemical; conditions: PR mutation H72R (HIV63L), cat 231
T1 construct: adds a stop codon and a Hind III restriction site to the C-terminus of the protease; Met-Ala N-terminal extension (printed 'methionine, and alkaline'; the primer codes ATG GCA) (N); made in house; host or cells: E. coli Rosetta pLysS, pET21a
From the text: (§2) Complementary DNA (cDNA) was synthesized from isolated plasma viral RNA of infected cats. […] The amplified PCR product was gel purified and cloned into pCR-TOPOII vector (Invitrogen, Carlsbad, CA) for sequencing. Selected DNA of mutants, N55D, H72R, D105G, and M107R were digested with Nde I/Hind III and ligated into pET21a expression vector (Novagen). The mutant FIV-C proteases were expressed in Rosetta pLysS cells (Novagen) and purified as previously described.
(§3) Enzyme kinetics of FIV-C protease were assayed on the flourogenic substrate Arg-Ala-Leu-Thr-Lys(Abz)-Val-Gln/Phe(NO2)-Val-Gln-Ser-Lys-Gly-Arg-NH2. […] Inhibitor constant (Ki) of TL-3 against mutant FIV-C protease was analyzed as described.

[2] = Tolerability of oral TL-3 in uninfected control cats; type: in vivo, cat; conditions: TL-3 treated controls, 20 mg then 40 mg oral every eight hours
Procedure: as §1

[3] = target: FIV-C protease mutant D105G (HIV88N) (Feline immunodeficiency virus, UniProt P16088, D143G)
From the text: as §2, §3

wild-type FIV-C protease = assay: Inhibitor constant (Ki) of TL-3 against wild-type FIV-C protease, fluorogenic substrate; type: biochemical, feline immunodeficiency virus (FIV-C); conditions: wildtype PR
From the text: as §2, §3

[4] = system: SIV (simian immunodeficiency virus); set-up: method as in PMID 9448264; conditions: cited from earlier work
FIV-PPR = FIV-PPR infected cats; cited from earlier work
[5] = target: T2, FIV-C protease mutant N55D (HIV46M) (Feline immunodeficiency virus, UniProt P16088, N93D); assay: Inhibitor constant (Ki) of TL-3 against mutant FIV-C protease N55D; type: biochemical; conditions: PR mutation N55D (HIV46M), cat 231
T2 construct: adds a stop codon and a Hind III restriction site to the C-terminus of the protease; Met-Ala N-terminal extension (printed 'methionine, and alkaline'; the primer codes ATG GCA) (N); made in house; host or cells: E. coli Rosetta pLysS, pET21a
From the text: as §2, §3

HIV-1 = system: HIV-1; set-up: method as in PMID 9448264; conditions: cited from earlier work
FIV = system: FIV; set-up: method as in PMID 9448264; conditions: cited from earlier work

Compound: CC(C)[C@H](NC(=O)[C@H](C)NC(=O)OCc1ccccc1)C(=O)N[C@@H](Cc1ccccc1)[C@@H](O)[C@H](O)[C@H](Cc1ccccc1)NC(=O)[C@@H](NC(=O)[C@H](C)NC(=O)OCc1ccccc1)C(C)C [TL-3]
- animals that had lost weight (FIV-C (CABCpady00C); 6 weeks post infection, + TL-3 cohort, three also in -TL-3 cohort): three
- animals that required euthanasia (FIV-C (CABCpady00C); TL-3 treated group, of six euthanized, four from untreated cohort): two
- average (peak) viral loads vs untreated animals (FIV-C (CABCpady00C); acute phase, did not reach statistical significance): lower
- animals showing clinical signs of debilitating acute phase disease (FIV-C (CABCpady00C); by week 6 post infection, TL-3 treated groups, of seven affected, four untreated): three
- prevention of viremia (FIV-C (CABCpady00C); oral monotherapy, high dose FIV-C): did not prevent viremia
- plasma viremia, TL-3 treated vs untreated cohorts (FIV-C (CABCpady00C); week 2 post infection): little differences in viral loads
- animals with viral loads below detection limits (FIV-C (CABCpady00C); week 8 post infection, surviving TL-3 treated cats, oral 20 mg every eight hours, untreated: one of six): four of 8 and half
- Ki [1]: 10.9 nM
- adverse effects [2]: No adverse effects
- resistance against TL-3 relative to wild type protease ([3]; D105G mutant vs wild type FIV-C protease): 5 fold
- Ki ([3]; read-out: Ki vs TL-3, PR mutation D105G (HIV88N), cloned from cats 231 and 222): 47.3 nM
- Ki (wild-type FIV-C protease): 9.9 nM
- inhibition of infection in vitro [4]: inhibits
- effect on delays in brainstem auditory evoked potentials (BAEPs) (FIV-PPR): could reverse this effect
- effect on neurologic alterations in the CNS (FIV-PPR): significant protective effect
- plasma viral loads (FIV-PPR): lowered plasma viral loads
- Ki [5]: 9.1 nM
- inhibition of infection in vitro (HIV-1): inhibits
- inhibition of infection in vitro (FIV): inhibits
